The values that follow are results of earlier work, collected in patent US4127538A, “Novel pentacosapeptides, intermediates therefor and pharmaceutical compositions and methods employing said pentacosapeptides” (priority 1977, dated 1978).

The conditions of data set [1]: injected directly into the brain of the rat.
For data set [2], the system named is partially purified brain opiate receptor sites.

“H-Tyr-Gly-Gly-Phe-Met-OH [methionine enkephalin]”: the analgesic effect entry in data set [1] is on record as “weak analgesic agent of short duration”. Further, in data set [2], the “binding to partially purified brain opiate receptor sites” value is given as “binds stereo-specifically”.
